Data published in patent US12378256B2, “Heterocyclic compound” (Takeda Pharmaceutical Company Limited, priority 2017, dated 2025).

Columns and labels:
MDR1 = target: T1, MDR1 (Homo sapiens, UniProt P08183); experiment: MDR1 membrane permeability test; assay type: in vitro ADME; details: pH 7.4, efflux ratio (ER), human MDR1-expressing LLC-PK1 cells, 37° C., read-out: MDR1 substrate screening 1 μM (MDRSUB1)/Ratio (NUMBER)
T1 construct: expressed in transfected cells; host or cells: LLC-PK1 (porcine kidney cells)
Procedure: MDR1 Membrane Permeability Test
When MDR1 is expressed in excess in LLC-PK1 cell, which is a polar cell, MDR1 is localized in apical membrane (A), thus promoting transcellular transport from the basement membrane side (B) toward direction A. When a ratio to the transcellular transport in the opposite direction is taken and a ratio to a control cell in which a mock vector has been introduced is further taken, an efflux ratio of MDR1 to simple diffusion (corrected efflux ratio) is calculated. Similarly, when a brain/plasma concentration ratio in Mdr1(−/−) mouse is divided by a brain/plasma concentration ratio in wild-type mouse, an efflux ratio of Mdr1 to simple diffusion in blood-brain barrier (BBB) (Kp, brain ratio, higher value means lower central nervous system permeability) is calculated. Adachi Y. et al. (Reference 1) has reported a positive correlation between corrected efflux ratio and Kp, brain ratio (FIG. 5(C)), and efflux ratio in MDR1 expressing cell and Kp, brain ratio (FIG. 5(B)).
To confirm the central nervous system permeability of the compounds of the present invention, a MDR1 membrane permeability test was performed by the following method.
Digoxin and lucifer yellow (LY) were purchased from Sigma-Aldrich, Diclofenac, colchicine and alprenolol were purchased from Wako Pure Chemical Industries, Ltd., and other reagents used were commercially available products of special grade.
Human MDR1-expressing LLC-PK1 cells were cultured according to the report of Takeuchi et al. (Reference 2). Human MDR1-expressing LLC-PK1 cells were cultured in 10% fetal bovine serum (Invitrogen), 500 μg/ml G418 (Invitrogen), 150 ng/ml colchicine-containing M199 medium (Invitrogen) under 5% CO2 conditions at 37° C.
Transcellular transport was performed according to the report of Sugimoto et al. (Reference 3). The cells were cultured for 3 days on HTS Transwell (registered trademark) 96 well permeable support (pore size 0.4 μm, 0.143 cm^2 surface area, Corning Life Sciences) having polyethylene terephthalate membrane on which the cells had been seeded at 3.45×10^4 cells/well. After preincubation in M199 medium (containing 10 mmol/L HEPES, 1% BSA, pH 7.4) for 30 min, a drug solution (10 μmol/L digoxin, 200 μmol/L LY, […]) dissolved in M199 medium was added to the apical side or basolateral side of the Transwell by 75 or 250 μL each and the cells were cultured under 5% CO2 conditions at 37° C. After 1 hr, the sample was collected from the side opposite to the side where the drug solution was added, and the concentration of the test compound was measured by LC-MS/MS. As an internal standard substance, 100 ng/mL alprenolol and diclofenac were used. The analysis conditions were as follows. • LC: UFLC LC-20 (Shimadzu) • MS/MS: API4000 (AB Sciex Instruments) • LC condition: gradient method
[formula] • Amount: amount of transported digoxin/well • Area: surface area of cell monolayer (0.143 cm^2) • C0: concentration of drug solution added • Time: incubation time

[1] = target: T2, human M1 receptor (hCHRM1) (Homo sapiens, UniProt P11229); experiment: Measurement of M1 receptor positive allosteric modulator (M1PAM) activity, calcium fluorescence with acetylcholine at EC20; assay type: cell-based; details: for activity (%) at 10 μM: 10 μM test compound, 100% = 1 μM acetylcholine, 0% = DMSO; for EC50: CHO-K1 cells expressing hCHRM1, acetylcholine at EC20 (final 0.8-1.0 nM), read-out: IP value (inflection point in the concentration-dependent curve)
T2 construct: expressed in transfected cells; host or cells: CHO-K1
T2 sequence (P11229 1-460): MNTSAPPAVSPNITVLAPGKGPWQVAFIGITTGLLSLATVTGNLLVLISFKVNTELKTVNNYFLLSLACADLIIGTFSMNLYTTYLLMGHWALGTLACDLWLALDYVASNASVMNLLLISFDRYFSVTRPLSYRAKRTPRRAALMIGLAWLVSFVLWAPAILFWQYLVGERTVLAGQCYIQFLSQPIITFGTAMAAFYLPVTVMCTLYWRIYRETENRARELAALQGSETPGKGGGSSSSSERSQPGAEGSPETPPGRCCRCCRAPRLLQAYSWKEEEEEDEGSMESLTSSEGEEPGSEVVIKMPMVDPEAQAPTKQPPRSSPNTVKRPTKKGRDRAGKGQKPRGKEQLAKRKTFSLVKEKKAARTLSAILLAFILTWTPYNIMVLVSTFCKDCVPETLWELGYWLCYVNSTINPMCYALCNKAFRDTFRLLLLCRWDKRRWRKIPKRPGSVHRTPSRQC
Procedure: Measurement of M1 Receptor Positive Allosteric Modulator (M1PAM) Activity
The activity of a test compound in the presence of acetylcholine at EC20 concentration (final concentration 0.8-1.0 nM), which affords an action corresponding to about 20% of the maximum activity, was measured as PAM activity. The method is as follows. CHO-K1 cells stably expressing a human M1 receptor (hCHRM1) were plated on a 384-well black clear bottom plate (BD Falcon) at 5,000 cells/well, and cultured in an incubator at 37° C., 5% CO2 for 1 day. The medium in the cell plate was removed, and assay buffer A containing calcium indicator (Recording medium (DOJINDO LABORATORIES), 0.1% BSA (Wako Pure Chemical Industries, Ltd.), 2.5 μg/mL Fluo-4 AM (DOJINDO LABORATORIES), 0.08% Pluronic F127 (DOJINDO LABORATORIES), 1.25 mM probenecid (DOJINDO LABORATORIES)) was added at 30 μL/well. The cells were left standing in the incubator at 37° C., 5% CO2 for 30 min, and further left standing at room temperature for 30 min. A test compound prepared by diluting with assay buffer B (HBSS (Invitrogen), 20 mM HEPES (Invitrogen), 0.1% BSA) containing 3.2-4.0 nM acetylcholine was added at 10 μL/well, and the fluorescence was measured by FDSS/μCELL (Hamamatsu Photonics K.K.) for 1 min every for 1 second. With the definition that the amount of change in the fluorescence on addition of acetylcholine (final concentration 1 μM) is 100% and that on addition of DMSO instead of a test compound is 0%, the activity (%) of the test compound was calculated, and the inflection point in the concentration-dependent curve of the test compound was calculated as IP values.

T1 sequence (P08183 whole entry): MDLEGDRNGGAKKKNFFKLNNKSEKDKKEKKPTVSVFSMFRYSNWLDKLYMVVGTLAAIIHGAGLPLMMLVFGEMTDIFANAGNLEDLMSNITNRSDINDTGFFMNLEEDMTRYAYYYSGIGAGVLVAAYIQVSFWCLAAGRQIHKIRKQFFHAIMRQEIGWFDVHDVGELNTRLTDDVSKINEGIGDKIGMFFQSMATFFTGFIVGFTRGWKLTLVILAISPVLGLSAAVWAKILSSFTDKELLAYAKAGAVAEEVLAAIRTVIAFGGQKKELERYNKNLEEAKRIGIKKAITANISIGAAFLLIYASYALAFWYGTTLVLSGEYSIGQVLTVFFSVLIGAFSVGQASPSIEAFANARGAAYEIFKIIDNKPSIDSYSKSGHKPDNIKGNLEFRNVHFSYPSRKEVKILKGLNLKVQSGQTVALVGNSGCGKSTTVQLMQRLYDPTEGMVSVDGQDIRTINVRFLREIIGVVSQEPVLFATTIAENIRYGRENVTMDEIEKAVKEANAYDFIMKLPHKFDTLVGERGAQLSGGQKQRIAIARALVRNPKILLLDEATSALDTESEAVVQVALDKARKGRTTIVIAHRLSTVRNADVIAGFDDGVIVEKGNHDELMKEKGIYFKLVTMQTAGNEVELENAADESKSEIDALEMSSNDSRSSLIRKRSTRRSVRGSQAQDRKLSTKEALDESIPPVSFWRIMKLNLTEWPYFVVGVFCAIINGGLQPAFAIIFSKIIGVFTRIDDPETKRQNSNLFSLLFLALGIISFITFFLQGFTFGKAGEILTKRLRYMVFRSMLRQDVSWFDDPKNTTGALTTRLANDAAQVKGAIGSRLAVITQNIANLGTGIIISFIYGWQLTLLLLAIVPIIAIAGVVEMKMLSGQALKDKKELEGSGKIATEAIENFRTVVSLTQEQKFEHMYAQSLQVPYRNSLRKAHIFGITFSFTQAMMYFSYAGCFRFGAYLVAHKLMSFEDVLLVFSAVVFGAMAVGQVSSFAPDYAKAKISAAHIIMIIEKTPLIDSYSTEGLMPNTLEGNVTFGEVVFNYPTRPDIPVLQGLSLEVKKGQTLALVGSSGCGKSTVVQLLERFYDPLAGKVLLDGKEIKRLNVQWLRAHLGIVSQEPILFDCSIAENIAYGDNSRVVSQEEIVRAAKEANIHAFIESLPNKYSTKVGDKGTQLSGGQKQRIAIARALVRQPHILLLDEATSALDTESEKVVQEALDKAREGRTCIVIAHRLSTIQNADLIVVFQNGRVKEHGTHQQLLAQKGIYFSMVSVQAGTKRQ

For `COCCNC(=O)c1ccc(Cc2cc(C(=O)N[C@H]3CCOC[C@@H]3O)nc3ccoc23)cc1F` [Example 109, 1,5-anhydro-2,3-dideoxy-3-(((7-(3-fluoro-4-((2-methoxyethyl)carbamoyl)benzyl)furo[3,2-b]pyridin-5-yl)carbonyl)amino)-L-threo-pentitol], the efflux ratio at 1 h, 1 μM (MDR1) was 10, the “activity (%) at 10 μM” value [1] was 107% and the EC50 [1] was 2.4 nM.
In the case of `O=C(N[C@H]1CCOC[C@@H]1O)c1cc(Cc2ccc(C(=O)NC[C@@H]3CCCO3)c(F)c2)c2occc2n1` [Example 102, 1,5-anhydro-2,3-dideoxy-3-(((7-(3-fluoro-4-(((2S)-tetrahydrofuran-2-ylmethyl)carbamoyl)benzyl)furo[3,2-b]pyridin-5-yl)carbonyl)amino)-L-threo-pentitol], the efflux ratio at 1 h, 1 μM (MDR1) is reported as 20, the “activity (%) at 10 μM” value [1] is reported as 107% and the EC50 [1] is reported as 2.7 nM.
In the case of `Cn1cc(-c2ccc(C(F)c3cc(C(=O)N[C@H]4CCOC[C@@H]4O)nc4ccoc34)cc2)nn1` (single isomer, unassigned) [Example 55, 1,5-anhydro-2,3-dideoxy-3-(((7-(fluoro(4-(1-methyl-1H-1,2,3-triazol-4-yl)phenyl)methyl)furo[3,2-b]pyridin-5-yl)carbonyl)amino)-L-threo-pentitol], the efflux ratio at 1 h, 1 μM (MDR1) is reported as 6.5, the “activity (%) at 10 μM” value [1] is reported as 107% and the EC50 [1] is reported as 0.63 nM.
With `COCCNC(=O)c1ccc(Cc2cc(C(=O)N[C@H]3CCOC[C@@H]3O)nc3c2OCC3)cc1F` [Example 76, 1,5-anhydro-2,3-dideoxy-3-(((7-(3-fluoro-4-((2-methoxyethyl)carbamoyl)benzyl)-2,3-dihydrofuro[3,2-b]pyridin-5-yl)carbonyl)amino)-L-threo-pentitol] the efflux ratio at 1 h, 1 μM (MDR1) was 35, the “activity (%) at 10 μM” value [1] was 109% and the EC50 [1] was 3.5 nM.
For `Cn1cc(-c2ccc(Cc3cc(C(=O)N[C@H]4CCOC[C@@H]4O)nc4ccoc34)cc2)nn1` [Example 20, 1,5-anhydro-2,3-dideoxy-3-(((7-(4-(1-methyl-1H-1,2,3-triazol-4-yl)benzyl)furo[3,2-b]pyridin-5-yl)carbonyl)amino)-L-threo-pentitol], the efflux ratio at 1 h, 1 μM (MDR1) was 4.8, the “activity (%) at 10 μM” value [1] was 98% and the EC50 [1] was 0.88 nM.
In the case of `O=C(N[C@H]1CCOC[C@@H]1O)c1cc(Cc2ccc(C(=O)NC[C@@H]3CCCO3)c(F)c2)c2c(n1)CCO2` [Example 77, 1,5-anhydro-2,3-dideoxy-3-(((7-(3-fluoro-4-(((2S)-tetrahydrofuran-2-ylmethyl)carbamoyl)benzyl)-2,3-dihydrofuro[3,2-b]pyridin-5-yl)carbonyl)amino)-L-threo-pentitol], the efflux ratio at 1 h, 1 μM (MDR1) is reported as 25, the “activity (%) at 10 μM” value [1] is reported as 108% and the EC50 [1] is reported as 3.2 nM.
In the case of `Cn1cc(-c2ccc(Cc3cc(C(=O)N[C@H]4CCOC[C@@H]4O)nc4c3OCC4)cc2)nn1` [Example 31, 1,5-anhydro-2,3-dideoxy-3-(((7-(4-(1-methyl-1H-1,2,3-triazol-4-yl)benzyl)-2,3-dihydrofuro[3,2-b]pyridin-5-yl)carbonyl)amino)-L-threo-pentitol], the efflux ratio at 1 h, 1 μM (MDR1) is reported as 11, the “activity (%) at 10 μM” value [1] is reported as 101% and the EC50 [1] is reported as 1.4 nM.
`Cn1cc(-c2ccc(Cc3cc(C(=O)N[C@H]4CCOC[C@@H]4O)nc4c3OCC4)cc2)cn1` [Example 44, 1,5-anhydro-2,3-dideoxy-3-(((7-(4-(1-methyl-1H-pyrazol-4-yl)benzyl)-2,3-dihydrofuro[3,2-b]pyridin-5-yl)carbonyl)amino)-L-threo-pentitol] was tested, and the efflux ratio at 1 h, 1 μM (MDR1) was 5.5, the “activity (%) at 10 μM” value [1] was 105% and the EC50 [1] was 1.5 nM.
With `Cn1cc(-c2ccc(Cc3cc(C(=O)N[C@H]4CCOC[C@@H]4O)nc4ccoc34)cn2)cn1` [Example 36, 1,5-anhydro-2,3-dideoxy-3-(((7-((6-(1-methyl-1H-pyrazol-4-yl)pyridin-3-yl)methyl)furo[3,2-b]pyridin-5-yl)carbonyl)amino)-L-threo-pentitol] the efflux ratio at 1 h, 1 μM (MDR1) was 9.1, the “activity (%) at 10 μM” value [1] was 96% and the EC50 [1] was 1.5 nM.
`Cn1cnc(-c2ccc(Cc3cc(C(=O)N[C@H]4CCOC[C@@H]4O)nc4c3OCC4)cc2)c1` [Example 74, 1,5-anhydro-2,3-dideoxy-3-(((7-(4-(1-methyl-1H-imidazol-4-yl)benzyl)-2,3-dihydrofuro[3,2-b]pyridin-5-yl)carbonyl)amino)-L-threo-pentitol] was tested, and the efflux ratio at 1 h, 1 μM (MDR1) was 11, the “activity (%) at 10 μM” value [1] was 108% and the EC50 [1] was 1.5 nM.
For `O=C(N[C@H]1CCOC[C@@H]1O)c1cc(Cc2ccc(-n3cccn3)cc2)c2c(n1)CCO2` [Example 22, 1,5-anhydro-2,3-dideoxy-3-(((7-(4-(1H-pyrazol-1-yl)benzyl)-2,3-dihydrofuro[3,2-b]pyridin-5-yl)carbonyl)amino)-L-threo-pentitol], the efflux ratio at 1 h, 1 μM (MDR1) was 2.6, the “activity (%) at 10 μM” value [1] was 106% and the EC50 [1] was 1.7 nM.
